Test systems include U251 CNS; SR leukemia; LOX IMVI melanoma; SK-MEL-28 melanoma; NCI-H226 lung; MALME-3M melanoma; HCT-116 colon; SF-295 CNS; HS 578T breast; HL-60(TB) leukemia; T-47D breast; A498 renal.
Assay in all cases: DTP human tumour cell line panel, 48 h

Each structure is given as a SMILES string.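 Values below derive from 48-hour exposures of cells grown in 96-well plates, with endpoints linearly interpolated between the two concentrations bracketing the appropriate inhibition level. GI50 is the concentration that inhibits growth by half. TGI: concentration producing complete growth inhibition.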 A value given as a limit tells only on which side of the number the result lay.

For orientation: TGI means the concentration giving total growth inhibition. Low readings indicate more potent growth arrest, high ones less potent growth arrest. Consider `CN1C(=O)CN2C(Cl)(Cl)C2(c2ccccc2F)c2cc([N+](=O)[O-])ccc21` (configuration not stated), for which the TGI is more than 100 µM in the experiment with U251 CNS; more than 100 µM in the experiment with SR leukemia; more than 100 µM in the experiment with LOX IMVI melanoma; more than 100 µM with SK-MEL-28 melanoma; 92.5 µM with NCI-H226 lung; 95.8 µM with MALME-3M melanoma. For the same compound, the TGI in the experiment on HCT-116 colon and in the experiment on SF-295 CNS was more than 100 µM each time.
With `CC(C)OC(=O)Nc1cccc(Cl)c1`, the total growth inhibition concentration (TGI) with U251 CNS, in the experiment on SR leukemia, in the experiment on HS 578T breast, in the experiment with LOX IMVI melanoma, with HL-60(TB) leukemia and in the experiment with SK-MEL-28 melanoma was more than 100 µM in each case. Also, the TGI in the experiment with NCI-H226 lung, in the experiment with T-47D breast, in the experiment on HCT-116 colon and in the experiment on SF-295 CNS was more than 100 µM in each case.
`COc1ccc(CC2c3cc(OC)c(OC)c(OC)c3CC[N+]2(C)C)cc1Oc1ccc(CC2c3cc4c(c(OC)c3CC[N+]2(C)C)OCO4)cc1` (configuration not stated): the TGI in the experiment on U251 CNS, in the experiment with SR leukemia, in the experiment on HS 578T breast, with LOX IMVI melanoma, in the experiment with HL-60(TB) leukemia and in the experiment on SK-MEL-28 melanoma was more than 100 µM each time. The TGI with A498 renal, in the experiment on NCI-H226 lung, in the experiment with T-47D breast, in the experiment on MALME-3M melanoma, in the experiment on HCT-116 colon and in the experiment with SF-295 CNS was more than 100 µM each time.
Take `Nc1nc(Cl)cc(NCCCNc2cc(Cl)nc(N)n2)n1`: the total growth inhibition concentration (TGI) with U251 CNS, in the experiment on SR leukemia, in the experiment on LOX IMVI melanoma, with HL-60(TB) leukemia, with SK-MEL-28 melanoma and in the experiment with A498 renal was more than 100 µM throughout. Also, the TGI with NCI-H226 lung, with MALME-3M melanoma, with HCT-116 colon and in the experiment with SF-295 CNS was more than 100 µM throughout.
The term GI50 denotes the concentration giving 50% growth inhibition. As for `Cn1cc(-c2csc(-c3cn(C)c4ccc(Br)cc34)n2)c2cnccc21`, the GI50 in the experiment with U251 CNS is 1.78 µM; in the experiment with HS 578T breast, 2.23 µM; in the experiment with HL-60(TB) leukemia it was 1.48 µM; in the experiment on SK-MEL-28 melanoma, 1.85 µM; with A498 renal, 1.78 µM; with MALME-3M melanoma, 1.95 µM. The GI50 in the experiment with SF-295 CNS is 1.81 µM. The TGI came out at 3.27 µM in the experiment on U251 CNS; 4.73 µM in the experiment on HS 578T breast; 3.31 µM in the experiment with HL-60(TB) leukemia; 3.3 µM in the experiment on SK-MEL-28 melanoma; 3.67 µM in the experiment with A498 renal; 3.48 µM in the experiment with MALME-3M melanoma. The compound further displayed a TGI in the experiment on SF-295 CNS of 3.4 µM.
As for `CC(N)C(=O)OCN1C(=O)C2C3C=CC(C2C1=O)C1C2C(=O)N(COC(=O)C(C)N)C(=O)C2C31` (configuration not stated), the TGI is 50.3 µM with U251 CNS; 29.3 µM with SR leukemia; 35.8 µM with LOX IMVI melanoma; 62.2 µM in the experiment with HL-60(TB) leukemia; 41.4 µM in the experiment with SK-MEL-28 melanoma; more than 100 µM in the experiment with NCI-H226 lung. Moreover, the TGI with HCT-116 colon is 44.9 µM; in the experiment on SF-295 CNS, more than 100 µM.
On to `NC(=O)c1ccc(NS(=O)(=O)c2ccc(N)cc2)nc1`, for which the TGI in the experiment on U251 CNS, in the experiment on HS 578T breast, with LOX IMVI melanoma, with HL-60(TB) leukemia, in the experiment with SK-MEL-28 melanoma and with A498 renal was more than 100 µM in each case. The total growth inhibition concentration (TGI) in the experiment with NCI-H226 lung, with T-47D breast, in the experiment on MALME-3M melanoma, in the experiment with HCT-116 colon and in the experiment with SF-295 CNS was more than 100 µM in each case.
Take `COC(=O)C(=O)C(C(=O)C1=NS(=O)(=O)c2cc(S(N)(=O)=O)c(Cl)cc2N1)c1nc2ccc(C(=O)c3ccccc3)cc2[nH]c1=O` (configuration not stated): the concentration for total growth inhibition (TGI) in the experiment with U251 CNS, with SR leukemia, in the experiment on SK-MEL-28 melanoma, with A498 renal, with NCI-H226 lung and in the experiment on MALME-3M melanoma was more than 100 µM in each case. For the same compound, the total growth inhibition concentration (TGI) in the experiment on HCT-116 colon and in the experiment on SF-295 CNS was more than 100 µM throughout.
Turning to `Cc1cccc(O)c1-c1nnc(CCCCCCCCc2nnc(-c3c(C)cccc3O)n2N)n1N`, the total growth inhibition concentration (TGI) in the experiment on U251 CNS was 67.5 µM; in the experiment on SR leukemia, more than 52.5 µM; in the experiment on HS 578T breast, more than 100 µM; in the experiment on LOX IMVI melanoma it was more than 100 µM; in the experiment on HL-60(TB) leukemia, more than 100 µM; in the experiment on SK-MEL-28 melanoma it was more than 100 µM. In addition, the concentration for total growth inhibition (TGI) in the experiment with A498 renal, in the experiment on NCI-H226 lung, in the experiment on T-47D breast, in the experiment with MALME-3M melanoma, in the experiment on HCT-116 colon and in the experiment on SF-295 CNS was more than 100 µM throughout.
As to `Cc1ccc(S(=O)(=O)N2c3ccccc3[C@H]3CCc4c([nH]c5ccccc45)[C@H]32)cc1`, the TGI with U251 CNS, in the experiment with LOX IMVI melanoma, with SK-MEL-28 melanoma, in the experiment on NCI-H226 lung, in the experiment with T-47D breast and in the experiment on HCT-116 colon was more than 100 µM in each case. Also, the TGI with SF-295 CNS was more than 100 µM.
For the compound `c1ccc(CSC2(SCc3ccccc3)CCCC2)cc1`, the TGI with U251 CNS, in the experiment on SR leukemia, in the experiment on HS 578T breast, in the experiment with LOX IMVI melanoma, with HL-60(TB) leukemia and in the experiment on SK-MEL-28 melanoma was more than 10 µM each time. In addition, the total growth inhibition concentration (TGI) with A498 renal, in the experiment with NCI-H226 lung, in the experiment with T-47D breast, with MALME-3M melanoma, with HCT-116 colon and in the experiment on SF-295 CNS was more than 10 µM throughout.

Source of the values: PubChem BioAssay (NCI).
